Data reported in US11584760B2, “Dithio ETP derivatives” (priority 2016, dated 2023).

Experiments:
[1] = test system: Hut 78 cells (cutaneous T-cell lymphoma, CTCL); assay: CTCL tumor model: Hut 78 cells injected subcutaneously into NSG mice; type: in vivo; conditions: 20 mg/kg orally (gavage), 3 consecutive days/week; treatment started at tumor size approx. 200 mm^3; vs vehicle
Procedure: NSG (NOD. Cg-Prkdcscid II2rgtm1Wjl/SzJ) mice (5 to 7 weeks of age) were obtained from an-animal in-house breeding facility. The facility mice stock derived from mice obtained from Jackson Laboratory. All animal experiments were conducted in accordance with protocol approved by the City of Hope Beckman Research Institute IACUC.
CTCL tumor model: 3 million of Hut 78 cells in 100 μl (cells in PBS:Matrigel=1:1) injected subcutaneously.
The compound stock of 60 mg/ml was made in DMSO and diluted to 2 mg/ml in 30% Solutol. The compound was administered orally (by gavage) at 10 μl per gram of mice body weight in a dose of 20 mg/kg for 3 consecutive days/week.
100 μl of 3×10^6 Hut78 cells were injected subcutaneously into mice left flanks. The treatments were initiated when the tumor size reached approximately 200 mm^3. The compound or the vehicle alone were administered for 3 consecutive days/week.

[2] = test system: DU145 (human prostate cancer); assay: in vitro cytotoxicity against DU145 cancer cell line; type: cell-based; conditions: DU145 cells; for in vitro cytotoxicity (activity against the cancer cell line): data shown in FIG. 2
Procedure: (§1) FIGS. 2A and 2B. In vitro cytotoxicity against two invasive cancer cell lines, DU145 (human prostate cancer) and A2058 (human melanoma) were determined for different analogs.
(§2) Four examples of compounds of structure II with R═—C(O)R or —C(O)OR′ were prepared as depicted in FIG. 2 and their in vitro cytotoxicity against two invasive cancer cell lines, DU145 (human prostate cancer) and A2058 (human melanoma) were determined.

A2058 (human melanoma) = assay: in vitro cytotoxicity against A2058 cancer cell line; type: cell-based; conditions: A2058 cells; for in vitro cytotoxicity (activity against the cancer cell line): data shown in FIG. 2
Procedure: as §1, §2

Row | SMILES | inhibition of the tumor size [1] | in vitro cytotoxicity (activity against the cancer cell line) [2] | in vitro cytotoxicity (activity against the cancer cell line) (A2058 (human melanoma)) | activity compared with the corresponding ETP structure I (p=2) ([2]; FIG. 2) | activity compared with the corresponding ETP structure I (p=2) (A2058 (human melanoma); FIG. 2)
1 | CC(=O)S[C@@]1(C)C(=O)N2[C@@H](c3ccc4c(c3)OCO4)[C@@](C)(C#N)C[C@]2(SC(C)=O)C(=O)N1C [LEO-16-1845, S,S′-((3S,6S,7S,8aS)-6-(benzo[d][1,3]dioxol-5-yl)-7-cyano-2,3,7-trimethyl-1,4-dioxohexahydropyrrolo[1,2-c]pyrazine-3,8a(6H)-diyl) diethanethioate] | 86.5% |  |  |  | 
2 | CN1C(=O)[C@@]2(SC(=O)c3ccccc3)C[C@](C)(C#N)[C@H](c3ccc4c(c3)OCO4)N2C(=O)[C@]1(C)SC(=O)c1ccccc1 (relative stereo) [LEO-16-1836] |  | good activity | good activity |  | 
3 | CN1C(=O)[C@@]2(SC(=O)Cc3ccccc3)C[C@](C)(C#N)[C@H](c3ccc4c(c3)OCO4)N2C(=O)[C@]1(C)SC(=O)Cc1ccccc1 (relative stereo) [LEO-16-1835] |  | good activity | good activity |  | 
4 | CC(=O)S[C@@]1(C)C(=O)N2[C@@H](c3ccc4c(c3)OCO4)[C@@](C)(C#N)C[C@]2(SC(C)=O)C(=O)N1C (relative stereo) [LEO-16-1833, Rel-S, S′-((3S,6S,7S,8aS)-6-(benzo[d][1,3]dioxol-5-yl)-7-cyano-2,3,7-trimethyl-1,4-dioxohexahydropyrrolo[1,2-c]pyrazine-3,8a(6H)-diyl) diethanethioate] |  | good activity | good activity | nearly identical | nearly identical
